One assay has as its target hERG-receptor (Homo sapiens (Human), UniProt Q12809). The assay is described as follows: HERGBD: inhibition of specific 3H-Dofetilide binding to the hERG-receptor. Conditions: HEK cell membranes with human ERG, Hill-plot 2-parameter-model. As for the experimental part: Inhibition of Specific Binding to the hERG-Receptor (HERGBD)
A HEK cell line with stable transfected human ERG receptor was used for the assay. The cells were grown adherently and maintained in DULBECCOS' MEM medium with 10% FBS, 1% non-essential amino acids, 1% Penicillin/Streptomycin and 400 μg/ml G418 (Calbiochem).
For binding assays and membrane preparations the cell culture medium was removed, cells were washed with PBS. Crude membranes for radioligand binding experiments were prepared by scraping the cells off the dishes in ice cold 20 mM HEPES/0.1 mM KCl/pH 7.2. The cell suspension was homogenized on ice (Ultra turrax, 3×20 sec.) and the homogenate was spun for 10 min (1° C., 1000 g, OPTIMA, SW28, 2800 U/min). The supernatant was than centrifuged for 40 min at 100000 g (1° C., OPTIMA, SW28, 23000 U/min). The membrane pellet was resuspended in 20 mM HEPES/0.1 mM KCl/pH 7.2, frozen and stored at −80° C.
After thawing on the day of the assay, the membrane suspension was diluted further with 20 mM HEPES/0.1 mM KCl/pH 7.2.
The incubation mixture of 200 μl contained 1.5 nmol/l 3H-Dofetilide, optimized amount of membrane preparation, 20 mM HEPES/0.1 mM KCl/(pH 7.2) and inhibitor in 1% DMSO. Nonspecific binding was estimated in the presence of […] Dofetilide. The samples were incubated for 90 min. at RT.
Binding was terminated by filtration of the incubated membrane preparations using Filtermat B (Pharmacia, Uppsala Sweden) and a Micro Cell Harvester (Skatron, Lier, Norway). The Filtermat B had been presoaked with 1% polyethylenimine and carefully washed with 0.05 M Tris/HCl-buffer pH=7.7 after the filtration to separate free and bound radioactivity. The filters were counted in a scintillation counter (Betaplate 1205, Berthold, Wildbad, Germany) in order to determine the specific binding of [^3H]-Dofetilide.
The optimal amount of membrane preparation in the assay was determined and optimized for each membrane preparation separately in front of using the membranes in compound testing.
For pipetting of the incubation mixture we routinely use the robot Biomek2000 (Fa. Beckman).
In general terms: hERG is a cardiac potassium channel; its block is linked to QT prolongation.

The next assay deals with rat NR1/NR2B receptor (Rattus norvegicus (Rat), UniProt P35439+Q00960). The assay is described as follows: RRNR2BB: inhibition of specific binding to the rat NR1/NR2B receptor. The settings on record: [3H]-Ifenprodil binding, rat brain membranes, Hill-plot 2-parameter-model. As for the experimental part: RRNR2BB—Inhibition of Specific Binding to the Rat NR1/NR2B Receptor
Chain of rat NR1/NR2B receptor (Q00960 27-1482, other chains not shown): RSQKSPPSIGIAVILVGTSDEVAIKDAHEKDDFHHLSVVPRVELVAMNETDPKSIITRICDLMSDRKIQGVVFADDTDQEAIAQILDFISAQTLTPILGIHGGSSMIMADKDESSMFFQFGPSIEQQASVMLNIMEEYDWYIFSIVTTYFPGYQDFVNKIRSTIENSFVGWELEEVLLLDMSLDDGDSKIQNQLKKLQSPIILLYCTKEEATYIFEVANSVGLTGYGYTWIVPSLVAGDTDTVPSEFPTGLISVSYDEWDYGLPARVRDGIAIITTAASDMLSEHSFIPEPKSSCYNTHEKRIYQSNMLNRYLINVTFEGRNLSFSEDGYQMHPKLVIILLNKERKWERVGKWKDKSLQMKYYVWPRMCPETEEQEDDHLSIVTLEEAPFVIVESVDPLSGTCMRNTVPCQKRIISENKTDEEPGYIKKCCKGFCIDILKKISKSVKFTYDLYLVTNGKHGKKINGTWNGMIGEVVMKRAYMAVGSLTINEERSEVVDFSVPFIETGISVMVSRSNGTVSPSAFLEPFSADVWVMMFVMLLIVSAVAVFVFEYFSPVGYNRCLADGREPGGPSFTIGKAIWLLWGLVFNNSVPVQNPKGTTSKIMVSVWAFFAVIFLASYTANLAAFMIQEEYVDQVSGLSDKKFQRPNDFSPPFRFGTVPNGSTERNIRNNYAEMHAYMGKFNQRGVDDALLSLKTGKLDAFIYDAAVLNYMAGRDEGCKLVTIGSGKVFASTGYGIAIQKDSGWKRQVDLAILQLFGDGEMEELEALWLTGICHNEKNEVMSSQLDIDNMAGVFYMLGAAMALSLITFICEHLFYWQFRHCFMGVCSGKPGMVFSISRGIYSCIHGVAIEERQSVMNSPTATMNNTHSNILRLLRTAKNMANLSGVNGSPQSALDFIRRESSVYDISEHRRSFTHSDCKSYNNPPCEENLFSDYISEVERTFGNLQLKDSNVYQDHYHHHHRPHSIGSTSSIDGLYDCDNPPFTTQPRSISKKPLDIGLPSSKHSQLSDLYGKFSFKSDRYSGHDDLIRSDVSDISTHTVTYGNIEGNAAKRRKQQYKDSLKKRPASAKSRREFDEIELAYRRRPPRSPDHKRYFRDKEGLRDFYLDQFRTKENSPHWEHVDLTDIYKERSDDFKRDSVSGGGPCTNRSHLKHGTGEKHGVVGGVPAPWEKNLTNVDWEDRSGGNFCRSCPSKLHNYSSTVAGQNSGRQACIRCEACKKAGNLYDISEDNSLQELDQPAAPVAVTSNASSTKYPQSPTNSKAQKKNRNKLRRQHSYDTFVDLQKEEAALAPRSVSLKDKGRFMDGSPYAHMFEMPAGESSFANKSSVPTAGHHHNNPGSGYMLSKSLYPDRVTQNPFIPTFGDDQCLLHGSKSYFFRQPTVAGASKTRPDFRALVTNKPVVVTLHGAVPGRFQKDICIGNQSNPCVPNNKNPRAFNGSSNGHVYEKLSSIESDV
Male Wistar rats (180 to 200 g) were killed by suffocation in a CO2 chamber for two minutes. Whole brains without cerebellum were removed and dissected on ice, placed into closed vials and stored at −70° C.
Membrane fractions were prepared and tested using standard techniques. At the time of the assay, 1 g of the brains were placed into 25 ml of 50 mM Tris/10 mM EDTA buffer, pH=7.1, (25 vol. per g of original tissue) and was homogenized for 30 sec at 20000 U/min with an Ultraturrax T25 (Jahnke & Kunkel, IKA-Labortechnik, Staufen, Germany). The homogenate was centrifuged at 4° C. for 10 min at 48000 g (OPTIMA L-70, Beckman, Palo Alto, Calif. 94304, USA). The supernatant was discarded and the pellet was homogenized on ice for 30 sec at 20000 U/min with an Ultraturrax and again centrifuged at 48000 g for 30 minutes at 4° C. The resultant pellet was resuspended in 25 ml of 50 mM Tris/10 mM EDTA buffer, homogenized for 30 sec with an Ultraturrax, aliquoted, frozen at −70° C. and stored until use
After thawing on the day of the assay, a 5 ml membrane aliquote was centrifuged at 48000 g for 30 min at 4° C. The pellet was resuspended in 5 ml of 5 mM Tris/1 mM EDTA buffer, pH=7.4, homogenized for 30 sec at 20000 U/min with an Ultraturrax and centrifuged at 48000 g for 30 min at 4° C. This step was repeated twice. The final pellet was homogenized in 5 ml of 5 mM Tris/mM EDTA buffer at 4° C. with an Ultraturrax and used for the Ifenprodil-binding assay.
Nonspecific binding was estimated in the presence of 10 M CP101.606. The samples were incubated for 60 min. at 4° C.
Binding was terminated by filtration of the incubated membrane preparations using Filtermat B (Pharmacia, Uppsala Sweden) and a Micro Cell Harvester (Skatron, Lier, Norway). The Filtermat B had been presoaked with 1% polyethylenimine and carefully washed with […] Tris/HCl-buffer pH=7.7 after the filtration to separate free and bound radioactivity.
For pipetting of the incubation mixture the robot Biomek2000 (Fa. Beckman) was used.
The IC50 values in the tables below were determined using the Hill-plot, 2-parameter-model.

Chain of hERG-receptor (Q12809 whole entry): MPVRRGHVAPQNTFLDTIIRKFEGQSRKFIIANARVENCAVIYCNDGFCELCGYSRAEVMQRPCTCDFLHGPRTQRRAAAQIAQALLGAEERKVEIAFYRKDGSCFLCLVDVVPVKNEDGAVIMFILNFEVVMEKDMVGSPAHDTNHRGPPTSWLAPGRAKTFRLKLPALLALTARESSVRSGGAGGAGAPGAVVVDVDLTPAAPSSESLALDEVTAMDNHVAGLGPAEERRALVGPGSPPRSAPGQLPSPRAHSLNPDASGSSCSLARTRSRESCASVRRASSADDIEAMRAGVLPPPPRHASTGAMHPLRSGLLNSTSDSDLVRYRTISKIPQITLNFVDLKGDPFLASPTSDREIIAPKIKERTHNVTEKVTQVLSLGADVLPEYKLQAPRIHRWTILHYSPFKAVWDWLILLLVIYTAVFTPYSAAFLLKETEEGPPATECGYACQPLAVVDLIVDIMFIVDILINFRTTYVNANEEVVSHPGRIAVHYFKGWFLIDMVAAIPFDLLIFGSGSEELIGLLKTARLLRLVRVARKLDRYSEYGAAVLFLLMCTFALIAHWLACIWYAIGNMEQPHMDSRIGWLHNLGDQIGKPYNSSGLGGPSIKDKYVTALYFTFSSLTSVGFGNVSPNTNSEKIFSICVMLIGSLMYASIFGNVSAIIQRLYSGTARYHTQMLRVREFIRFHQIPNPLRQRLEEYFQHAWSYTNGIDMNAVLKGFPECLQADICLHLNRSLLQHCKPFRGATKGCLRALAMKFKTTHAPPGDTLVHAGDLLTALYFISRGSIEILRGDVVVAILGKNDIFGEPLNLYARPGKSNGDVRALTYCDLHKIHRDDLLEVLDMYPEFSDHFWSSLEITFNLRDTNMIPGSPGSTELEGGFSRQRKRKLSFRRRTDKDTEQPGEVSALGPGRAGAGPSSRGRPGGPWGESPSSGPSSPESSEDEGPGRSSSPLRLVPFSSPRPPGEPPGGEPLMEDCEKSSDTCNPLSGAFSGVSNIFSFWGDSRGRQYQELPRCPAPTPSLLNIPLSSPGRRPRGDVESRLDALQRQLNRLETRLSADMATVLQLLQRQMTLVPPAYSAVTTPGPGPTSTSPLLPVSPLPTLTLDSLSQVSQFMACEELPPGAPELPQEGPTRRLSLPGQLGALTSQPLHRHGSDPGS

In general, IC50 refers to the concentration needed to halve the response being measured. In the case of `Cc1nc(C)n(Cc2cn(-c3ccc(Cl)cc3)nn2)n1` [Example 1, 1-(4-Chloro-phenyl)-4-(3,5-dimethyl-[1,2,4]triazol-1-ylmethyl)-1H-[1,2,3]triazole], the values for the IC50 at hERG-receptor and on rat NR1/NR2B receptor were 419 µM and more than 10 µM, respectively.
For `CCCc1ncnn1Cc1cn(-c2ccc(Cl)cc2)nn1` [Example 2, 1-(4-Chloro-phenyl)-4-(5-propyl-[1,2,4]triazol-1-ylmethyl)-1H-[1,2,3]triazole], the IC50 at hERG-receptor was 0.032 µM; on rat NR1/NR2B receptor it was more than 1 µM.
For `CCCc1ncn(Cc2cn(-c3ccc(Cl)cc3)nn2)n1` [Example 3, 1-(4-Chloro-phenyl)-4-(3-propyl-[1,2,4]triazol-1-ylmethyl)-1H-[1,2,3]triazole], the IC50 at hERG-receptor is 0.305 µM; on rat NR1/NR2B receptor, more than 10 µM.
For the compound `CC(C)c1ncn(Cc2cn(-c3ccc(Cl)cc3)nn2)n1` [Example 4, 1-(4-Chloro-phenyl)-4-(3-isopropyl-[1,2,4]triazol-1-ylmethyl)-1H-[1,2,3]triazole], the IC50 on rat NR1/NR2B receptor was more than 10 µM.
As for `CCc1ncnn1Cc1cn(-c2ccc(Cl)cc2)nn1` [Example 5, 1-(4-Chloro-phenyl)-4-(5-ethyl-[1,2,4]triazol-1-ylmethyl)-1H-[1,2,3]triazole], the results for the IC50 on hERG-receptor and at rat NR1/NR2B receptor were 194 µM and more than 10 µM, respectively.
Take `CCc1ncn(Cc2cn(-c3ccc(Cl)cc3)nn2)n1` [Example 6, 1-(4-Chloro-phenyl)-4-(3-ethyl-[1,2,4]triazol-1-ylmethyl)-1H-[1,2,3]triazole]: the figures for the IC50 at hERG-receptor and at rat NR1/NR2B receptor were 54.9 µM and more than 10 µM, respectively.
Regarding `CC(C)c1ncnn1Cc1cn(-c2ccc(Cl)cc2)nn1` [Example 7, 1-(4-Chloro-phenyl)-4-(5-isopropyl-[1,2,4]triazol-1-ylmethyl)-1H-[1,2,3]triazole], the IC50 at hERG-receptor is more than 100 µM; on rat NR1/NR2B receptor, more than 10 µM.
As for `Cc1ncn(Cc2cn(-c3ccc(Cl)cc3)nn2)n1` [Example 9, 1-(4-Chloro-phenyl)-4-(3-methyl-[1,2,4]triazol-1-ylmethyl)-1H-[1,2,3]triazole], the IC50 at hERG-receptor is 46.9 µM; on rat NR1/NR2B receptor, more than 10 µM.
Turning to `Clc1ccc(-n2cc(Cn3nc(C4CC4)nc3C3CC3)nn2)cc1` [Example 10, 1-(4-Chloro-phenyl)-4-(3,5-dicyclopropyl-[1,2,4]triazol-1-ylmethyl)-1-[1,2,3]triazole], the IC50 was 0.0039 µM at hERG-receptor and more than 10 µM on rat NR1/NR2B receptor.
In the case of `Clc1ccc(-n2cc(Cn3ncnc3C3CCC3)nn2)cc1` [Example 11, 1-(4-Chloro-phenyl)-4-(5-cyclobutyl-[1,2,4]triazol-1-ylmethyl)-1H-[1,2,3]triazole], the IC50 on hERG-receptor is more than 100 µM; at rat NR1/NR2B receptor, more than 1 µM.
Consider `Clc1ccc(-n2cc(Cn3cnc(C4CCC4)n3)nn2)cc1` [Example 12, 1-(4-Chloro-phenyl)-4-(3-cyclobutyl-[1,2,4]triazol-1-ylmethyl)-1H-[1,2,3]triazole], for which the IC50 on hERG-receptor was 11.8 µM; at rat NR1/NR2B receptor it was more than 10 µM.
With `Clc1ccc(-n2cc(Cn3cnc(C4CC4)n3)nn2)cc1` [Example 13, 1-(4-Chloro-phenyl)-4-(3-cyclopropyl-[1,2,4]triazol-1-ylmethyl)-1H-[1,2,3]triazole], the IC50 is 45.1 µM at hERG-receptor and more than 10 µM on rat NR1/NR2B receptor.
On to `Clc1ccc(-n2cc(Cn3cnc(C4CCCC4)n3)nn2)cc1` [Example 15, 1-(4-Chloro-phenyl)-4-(3-cyclopentyl-[1,2,4]triazol-1-ylmethyl)-1H-[1,2,3]triazole], for which the results for the IC50 on hERG-receptor and at rat NR1/NR2B receptor were 87.9 µM and more than 10 µM, respectively.
Consider `Clc1ccc(-n2cc(Cn3ncnc3C3CC3)nn2)cc1` [Example 16, 1-(4-Chloro-phenyl)-4-(5-cyclopropyl-[1,2,4]triazol-1-ylmethyl)-1H-[1,2,3]triazole], for which the IC50 on hERG-receptor was more than 100 µM; at rat NR1/NR2B receptor, more than 10 µM.
In the case of `FC(F)(F)c1ncn(Cc2cn(-c3ccc(Cl)cc3)nn2)n1` [Example 17, 1-(4-Chloro-phenyl)-4-(3-trifluoromethyl-[1,2,4]triazol-1-ylmethyl)-1H-[1,2,3]triazole], the IC50 was 25.6 µM on hERG-receptor and more than 10 µM at rat NR1/NR2B receptor.
As to `Cc1nc(C2CCC2)nn1Cc1cn(-c2ccc(Cl)cc2)nn1` [Example 22, 1-(4-Chloro-phenyl)-4-(3-cyclobutyl-5-methyl-[1,2,4]triazol-1-ylmethyl)-1H-[1,2,3]triazole], the IC50 at rat NR1/NR2B receptor was more than 10 µM.
Turning to `Clc1ccc(-n2cc(Cn3ccnc3Cl)nn2)cc1` [Example 26, 4-(2-Chloro-imidazol-1-ylmethyl)-1-(4-chloro-phenyl)-1H-[1,2,3]triazole], the half-inhibitory concentration (IC50) at hERG-receptor was 12.1 µM.
With `CC(C)(C)c1nccn1Cc1cn(-c2ccc(Cl)cc2)nn1` [Example 30, 4-(2-tert-Butyl-imidazol-1-ylmethyl)-1-(4-chloro-phenyl)-1H-[1,2,3]triazole], the IC50 at hERG-receptor is 3.58 µM.
In turn, `CCCc1nccn1Cc1cn(-c2ccc(F)c(Cl)c2)nn1` [Example 43, 1-(3-Chloro-4-fluoro-phenyl)-4-(2-propyl-imidazol-1-ylmethyl)-1H-[1,2,3]triazole] yielded an IC50 on hERG-receptor of 2.72 µM.
The compound `Cc1nc(CO)n(Cc2cn(-c3ccccc3)nn2)n1` [Example 47, 4-(5-Hydroxymethyl-3-methyl-[1,2,4]triazol-1-ylmethyl)-1-phenyl-1H-[1,2,3]triazole] returned an IC50 on rat NR1/NR2B receptor of more than 10 µM.
Turning to `Cc1nc(CO)nn1Cc1cn(-c2ccccc2)nn1` [Example 48, 4-(3-Hydroxymethyl-5-methyl-[1,2,4]triazol-1-ylmethyl)-1-phenyl-1H-[1,2,3]triazole], the IC50 on rat NR1/NR2B receptor was more than 10 µM.
As to `Fc1cc(-n2cc(Cn3ccnc3C3CC3)nn2)ccc1Cl` [Example 61, 1-(4-Chloro-3-fluoro-phenyl)-4-(2-cyclopropyl-imidazol-1-ylmethyl)-1H-[1,2,3]triazole], the IC50 on hERG-receptor came to 3.62 µM.
Still for that read-out and setting: the same measure for `Cc1cc(-n2cc(Cn3ccnc3C3CC3)nn2)ccc1Cl` [Example 65, 1-(4-Chloro-3-methyl-phenyl)-4-(2-cyclopropyl-imidazol-1-ylmethyl)-1H-[1,2,3]triazole]: 3.87 µM; for `CC(C)c1nccn1Cc1cn(-c2cccc(OC(F)(F)F)c2)nn1` [Example 73, 4-(2-Isopropyl-imidazol-1-ylmethyl)-1-(3-trifluoromethoxy-phenyl)-1H-[1,2,3]triazole]: 13 µM; for `CS(=O)(=O)c1cccc(-n2cc(Cn3ccnc3CCO)nn2)c1` [Example 79, 4-[2-(2-Hydroxy-ethyl)-imidazol-1-ylmethyl]-1-(3-methanesulfonyl-phenyl)-1H-[1,2,3]triazole]: more than 100 µM.
`CCCCc1nccn1Cc1cn(-c2ccc(F)c(C(F)F)c2)nn1` [Example 86, 1-(3-Difluoromethyl-4-fluoro-phenyl)-4-(2-butyl-imidazol-1-ylmethyl)-1H-[1,2,3]triazole]: the IC50 on hERG-receptor came to 3.24 µM.
`OCCc1nccn1Cc1cn(-c2ccc(Cl)c(OC(F)F)c2)nn1` [Example 98, 1-(4-Chloro-3-difluoromethoxy-phenyl)-4-[2-(2-hydroxy-ethyl)-imidazol-1-ylmethyl]-1H-[1,2,3]triazole] gave an IC50 at hERG-receptor of 17.1 µM. This IC50 lies about 5.3-fold higher than the previous one.

These data come from patent publication US9981950B2, “Triazoles as NR2B receptor inhibitors” (Janssen Pharmaceuticals, Inc., priority 2014, dated 2018).
